Converted amounts (≈) assume the structure as drawn.
Columns and labels:
M. tuberculosis H37Rv = assay: MIC90 against M. tuberculosis in liquid medium; type: cell-based, Mycobacterium tuberculosis; conditions: liquid medium 7H9-Tw-OADC, aerobic, 5 days, average ± SD of two independent experiments; for MIC90: Mycobacterium tuberculosis, H37RV, 120 h, read-out: MIC (MIC90, minimum concentration required to inhibit growth of M. tuberculosis by 90%)
HepG2 cells = assay: Cytotoxicity against HepG2 cell line (CellTiter-Glo); type: cell-based; conditions: for Selectivity index (SI) = IC50/MIC90: HepG2 IC50 / M. tuberculosis MIC90; for IC50: Homo sapiens, 48 h, HepG2, 2 days incubation, read-out: IC50 (concentration required to reduce the viability of HepG2 cells by 50%)

With COc1ccc(CCNc2cc(-c3ccccc3)nc3ncnn23)cc1 [Compound 1, N-(4-methoxyphenethyl)-5-phenyl-[1,2,4]triazolo[1,5-a]pyrimidin-7-amine] the MIC90 (M. tuberculosis H37Rv) was 3.1 µM (≈ 1.07 µg/mL), the “MIC (MIC90, minimum concentration required to inhibit growth of M. tuberculosis by 90%)” value (M. tuberculosis H37Rv) was 3.1 ± 1.3 µM and the “Selectivity index (SI) = IC50/MIC90” value (HepG2 cells) was >32. The IC50 (HepG2 cells) was > 100 µM.
In the case of COc1ccc(CCNc2cc(-c3ccc(OC)cc3)nc3ncnn23)cc1 [Compound 7, N-(4-Methoxyphenethyl)-5-(4-methoxyphenyl)-[1,2,4]triazolo[1,5-a]pyrimidin-7-amine], the melting point is reported as 130 to 131 °C, the MIC90 (M. tuberculosis H37Rv) is reported as > 20 µM and the IC50 (HepG2 cells) is reported as > 100 µM.
In the case of COc1ccc(CCNc2cc(-c3ccccc3OC)nc3ncnn23)cc1 [Compound 8, N-(4-Methoxyphenethyl)-5-(2-methoxyphenyl)-[1,2,4]triazolo[1,5-a]pyrimidin-7-amine], the melting point is reported as 148 to 149 °C, the MIC90 (M. tuberculosis H37Rv) is reported as > 20 µM and the IC50 (HepG2 cells) is reported as 87 µM.
With COc1ccc(CCNc2cc(-c3ccc(C)cc3)nc3ncnn23)cc1 [Compound 9, N-(4-Methoxyphenethyl)-5-(p-tolyl)-[1,2,4]triazolo[1,5-a]pyrimidin-7-amine] the melting point was 155 to 156 °C, the MIC90 (M. tuberculosis H37Rv) was > 20 µM and the IC50 (HepG2 cells) was 37 µM.
With CCc1ccc(-c2cc(NCCc3ccc(OC)cc3)n3ncnc3n2)cc1 [Compound 10, 5-(4-Ethylphenyl)-N-(4-methoxyphenethyl)-[1,2,4]triazolo[1,5-a]pyrimidin-7-amine] the MIC90 (M. tuberculosis H37Rv) was > 20 µM and the IC50 (HepG2 cells) was > 100 µM.
With COc1ccc(CCNc2cc(-c3ccc(Cl)cc3)nc3ncnn23)cc1 [Compound 11, 5-(4-Chlorophenyl)-N-(4-methoxyphenethyl)-[1,2,4]triazolo[1,5-a]pyrimidin-7-amine] the melting point was 178 to 180 °C, the MIC90 (M. tuberculosis H37Rv) was > 20 µM and the IC50 (HepG2 cells) was 65 µM.
For COc1ccc(CCNc2cc(-c3ccccc3Cl)nc3ncnn23)cc1 [Compound 12, 5-(2-Chlorophenyl)-N-(4-methoxyphenethyl)-[1,2,4]triazolo[1,5-a]pyrimidin-7-amine], the MIC90 (M. tuberculosis H37Rv) was > 20 µM and the IC50 (HepG2 cells) was > 100 µM.
Work on COc1ccc(CCNc2cc(-c3ccc(F)cc3)nc3ncnn23)cc1 [Compound 13, 5-(4-Fluorophenyl)-N-(4-methoxyphenethyl)-[1,2,4]triazolo[1,5-a]pyrimidin-7-amine] yielded a melting point of 153 to 155 °C, an MIC90 (M. tuberculosis H37Rv) of 4.4 ± 2 µM (≈ 1.6 µg/mL) and an IC50 (HepG2 cells) of 89 µM.
For COc1ccc(CCNc2cc(-c3ccccc3F)nc3ncnn23)cc1 [Compound 14, 5-(2-Fluorophenyl)-N-(4-methoxyphenethyl)-[1,2,4]triazolo[1,5-a]pyrimidin-7-amine], the melting point was 153 to 155 °C, the MIC90 (M. tuberculosis H37Rv) was 3 ± 0.21 µM (≈ 1.09 µg/mL) and the “Selectivity index (SI) = IC50/MIC90” value (HepG2 cells) was >30. For the same compound, the IC50 (HepG2 cells) was > 100 µM.
With COc1ccc(CCNc2cc(-c3ccc(C(F)(F)F)cc3)nc3ncnn23)cc1 [Compound 15, N-(4-Methoxyphenethyl)-5-(4-(trifluoromethyl)phenyl)-[1,2,4]triazolo[1,5-a]pyrimidin-7-amine] the melting point was 191 to 193 °C, the MIC90 (M. tuberculosis H37Rv) was > 20 µM and the IC50 (HepG2 cells) was > 100 µM.
For COc1ccc(CCNc2cc(-c3cccnc3)nc3ncnn23)cc1 [Compound 17, N-(4-Methoxyphenethyl)-5-(pyridin-3-yl)-[1,2,4]triazolo[1,5-a]pyrimidin-7-amine], the melting point was 152 to 153 °C, the MIC90 (M. tuberculosis H37Rv) was > 20 µM and the IC50 (HepG2 cells) was > 100 µM.
For COc1ccc(CCNc2cc(-c3ccncc3)nc3ncnn23)cc1 [Compound 18, N-(4-Methoxyphenethyl)-5-(pyridin-4-yl)-[1,2,4]triazolo[1,5-a]pyrimidin-7-amine], the melting point was 217 to 219 °C, the MIC90 (M. tuberculosis H37Rv) was > 20 µM and the IC50 (HepG2 cells) was 69 µM.
For COc1ccc(CCNc2cc(Cc3ccccc3)nc3ncnn23)cc1 [Compound 19, 5-Benzyl-N-(4-methoxyphenethyl)-[1,2,4]triazolo[1,5-a]pyrimidin-7-amine], the melting point was 119 to 121 °C, the MIC90 (M. tuberculosis H37Rv) was > 20 µM and the IC50 (HepG2 cells) was 57 µM.
With COc1ccc(CCNc2cc(C)nc3ncnn23)cc1 [Compound 20, N-(4-Methoxyphenethyl)-5-methyl-[1,2,4]triazolo[1,5-a]pyrimidin-7-amine] the melting point was 129 to 130 °C, the MIC90 (M. tuberculosis H37Rv) was > 20 µM and the IC50 (HepG2 cells) was > 100 µM.
For CCc1cc(NCCc2ccc(OC)cc2)n2ncnc2n1 [Compound 21, 5-ethyl-N-(4-methoxyphenethyl)-[1,2,4]triazolo[1,5-a]pyrimidin-7-amine], the melting point was 70 to 72 °C, the MIC90 (M. tuberculosis H37Rv) was > 20 µM and the IC50 (HepG2 cells) was > 100 µM.
For COc1ccc(CCNc2cc(C3CC3)nc3ncnn23)cc1 [Compound 22], the MIC90 (M. tuberculosis H37Rv) was 5.8 ± 1.6 µM (≈ 1.79 µg/mL), the “Selectivity index (SI) = IC50/MIC90” value (HepG2 cells) was >17 and the IC50 (HepG2 cells) was > 100 µM.
For COc1ccc(CCNc2cc(C3CCC3)nc3ncnn23)cc1 [Compound 23, 5-Cyclobutyl-N-(4-methoxyphenethyl)-[1,2,4]triazolo[1,5-a]pyrimidin-7-amine], the melting point was 99 to 100 °C, the MIC90 (M. tuberculosis H37Rv) was 2.9 ± 0.71 µM (≈ 0.938 µg/mL) and the “Selectivity index (SI) = IC50/MIC90” value (HepG2 cells) was >34. The IC50 (HepG2 cells) was > 100 µM.
With COc1ccc(CCNc2cc(C3CCCC3)nc3ncnn23)cc1 [Compound 24, 5-Cyclopentyl-N-(4-methoxyphenethyl)-[1,2,4]triazolo[1,5-a]pyrimidin-7-amine] the melting point was 99 to 100 °C, the MIC90 (M. tuberculosis H37Rv) was 5.5 ± 0.07 µM (≈ 1.86 µg/mL) and the “Selectivity index (SI) = IC50/MIC90” value (HepG2 cells) was 17. It also gave an IC50 (HepG2 cells) of 95 µM.
With COc1ccc(CCNc2cc(C3CCCCC3)nc3ncnn23)cc1 [Compound 25, 5-Cyclohexyl-N-(4-methoxyphenethyl)-[1,2,4]triazolo[1,5-a]pyrimidin-7-amine] the melting point was 193 to 194 °C, the MIC90 (M. tuberculosis H37Rv) was > 20 µM and the IC50 (HepG2 cells) was 47 µM.
In the case of c1ccc(-c2ccn3ncnc3n2)cc1 [Compound 27, 5-Phenyl-[1,2,4]triazolo[1,5-a]pyrimidine], the melting point is reported as 179 to 181 °C, the MIC90 (M. tuberculosis H37Rv) is reported as > 20 µM and the IC50 (HepG2 cells) is reported as > 20 µM.
In the case of Nc1cc(-c2ccccc2)nc2ncnn12 [Compound 28, 5-Phenyl-[1,2,4]triazolo[1,5-a]pyrimidin-7-amine], the melting point is reported as 302 to 304 °C, the MIC90 (M. tuberculosis H37Rv) is reported as > 20 µM and the IC50 (HepG2 cells) is reported as > 20 µM.
For CNc1cc(-c2ccccc2)nc2ncnn12 [Compound 29, N-Methyl-5-phenyl-[1,2,4]triazolo[1,5-a]pyrimidin-7-amine], the melting point was 200 to 202 °C, the MIC90 (M. tuberculosis H37Rv) was > 20 µM and the IC50 (HepG2 cells) was > 20 µM.
In the case of FC(F)(F)c1ccc(CCNc2cc(-c3ccccn3)nc3ncnn23)cc1 [Compound 58, 5-(Pyridin-2-yl)-N-(4-(trifluoromethyl)phenethyl)-[1,2,4]triazolo[1,5-a]pyrimidin-7-amine], the MIC90 (M. tuberculosis H37Rv) is reported as 0.98 ± 0.4 µM (≈ 0.377 µg/mL), the “Selectivity index (SI) = IC50/MIC90” value (HepG2 cells) is reported as >119 and the IC50 (HepG2 cells) is reported as > 100 µM.
For Clc1ccc(CCNc2cc(-c3ccccn3)nc3ncnn23)cc1 [Compound 60, N-(4-Chlorophenethyl)-5-(pyridin-2-yl)-[1,2,4]triazolo[1,5-a]pyrimidin-7-amine], the MIC90 (M. tuberculosis H37Rv) was 0.76 ± 0.25 µM (≈ 0.267 µg/mL), the “Selectivity index (SI) = IC50/MIC90” value (HepG2 cells) was >135 and the IC50 (HepG2 cells) was > 100 µM.
For COc1ccc(C2CCCN(c3cc(-c4ccccn4)nc4ncnn34)C2)cc1 (stereo not drawn) [Compound 63, 7-(3-(4-Methoxyphenyl)piperidin-1-yl)-5-(pyridin-2-yl)-[1,2,4]triazolo[1,5-a]pyrimidine], the MIC90 (M. tuberculosis H37Rv) was > 20 µM and the IC50 (HepG2 cells) was 16 µM.
With COc1ccc(C2CN(c3cc(-c4ccccn4)nc4ncnn34)CCO2)cc1 (stereo not drawn) [Compound 64, 2-(4-Methoxyphenyl)-4-(5-(pyridin-2-yl)-[1,2,4]triazolo[1,5-a]pyrimidin-7-yl)morpholine] the MIC90 (M. tuberculosis H37Rv) was > 20 µM and the IC50 (HepG2 cells) was 50 µM.

— publication PMC5513444, “The synthesis and evaluation of triazolopyrimidines as anti-tubercular agents” (Bioorganic & Medicinal Chemistry, 2017)
